Laboratory results as given in patent publication US8802849B2, “Tricyclic benzo[4,5]thieno-[2,3-d]pyrimidine-4-yl-amin derivatives, their salts, process for producing the compounds and their pharmaceutical use” (Vichem Chemie Kutató Kft., priority 2008, dated 2014).

Experiments:
InsR = InsR (Homo sapiens, UniProt P06213); assay: InsR kinase assay; assay type: biochemical; details: 10 μM compound; read-out: InsR percent of inhibition
Procedure: (§1) General description of the kinase assays: the kinase activity was assayed in 96-well microtiter plates at a final compound concentration of 10 μM in a total volume of 50 μl. Compounds were dissolved in 100% DMSO to prepare a 10 mM stock solution and than diluted with buffer to reach a 10 μM (or the required) final concentration. The kinase concentration was used to yield 10% ATP turn over. The ATP concentration was used at the KmATP and 12.5 μCi/ml adenosine 5′[γ-33P]triphosphate. The substrate concentration was used at 5 fold excess over the Km for the substrate. The reaction was incubated for 1 hour at room temperature and stopped by addition of 10 μl 50 mM EDTA. The assay was transferred to a 96 well MAPH filter plate (Millipore). The radioactivity was counted on a Microbeta microplate counter.

EGFR = EGFR (Homo sapiens, UniProt P00533); assay: EGFR kinase assay (33P-ATP filter plate); assay type: biochemical; details: 10 μM compound; read-out: EGFR percent of inhibition
Procedure: as §1

MAPK-ERK1 = MAPK-ERK1 (Homo sapiens, UniProt P27361); assay: MAPK-ERK1 kinase assay; assay type: biochemical; details: 10 μM compound; read-out: MAPK-ERK1 percent of inhibition
MAPK-ERK1, sequence (P27361 whole entry): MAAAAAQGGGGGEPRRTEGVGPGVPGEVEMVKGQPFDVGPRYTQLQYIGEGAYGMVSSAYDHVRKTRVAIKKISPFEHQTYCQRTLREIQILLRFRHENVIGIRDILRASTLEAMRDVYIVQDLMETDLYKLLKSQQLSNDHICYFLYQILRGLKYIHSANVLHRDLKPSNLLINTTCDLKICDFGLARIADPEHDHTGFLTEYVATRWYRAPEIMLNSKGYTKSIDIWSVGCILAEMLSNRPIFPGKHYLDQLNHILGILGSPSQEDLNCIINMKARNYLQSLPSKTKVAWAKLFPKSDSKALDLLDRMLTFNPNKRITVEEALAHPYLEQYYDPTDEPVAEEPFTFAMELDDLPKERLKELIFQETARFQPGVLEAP
Procedure: as §1

P70S6K = P70S6K (Homo sapiens, UniProt P23443); assay: P70S6K kinase assay; assay type: biochemical; details: 10 μM compound; read-out: P70S6K percent of inhibition
Procedure: as §1

SRPK1 = SRPK1 (Homo sapiens, UniProt Q96SB4); assay: SRPK1 kinase assay; assay type: biochemical; details: 10 μM compound; read-out: SRPK1 percent of inhibition
SRPK1, sequence (Q96SB4 whole entry, species assumed): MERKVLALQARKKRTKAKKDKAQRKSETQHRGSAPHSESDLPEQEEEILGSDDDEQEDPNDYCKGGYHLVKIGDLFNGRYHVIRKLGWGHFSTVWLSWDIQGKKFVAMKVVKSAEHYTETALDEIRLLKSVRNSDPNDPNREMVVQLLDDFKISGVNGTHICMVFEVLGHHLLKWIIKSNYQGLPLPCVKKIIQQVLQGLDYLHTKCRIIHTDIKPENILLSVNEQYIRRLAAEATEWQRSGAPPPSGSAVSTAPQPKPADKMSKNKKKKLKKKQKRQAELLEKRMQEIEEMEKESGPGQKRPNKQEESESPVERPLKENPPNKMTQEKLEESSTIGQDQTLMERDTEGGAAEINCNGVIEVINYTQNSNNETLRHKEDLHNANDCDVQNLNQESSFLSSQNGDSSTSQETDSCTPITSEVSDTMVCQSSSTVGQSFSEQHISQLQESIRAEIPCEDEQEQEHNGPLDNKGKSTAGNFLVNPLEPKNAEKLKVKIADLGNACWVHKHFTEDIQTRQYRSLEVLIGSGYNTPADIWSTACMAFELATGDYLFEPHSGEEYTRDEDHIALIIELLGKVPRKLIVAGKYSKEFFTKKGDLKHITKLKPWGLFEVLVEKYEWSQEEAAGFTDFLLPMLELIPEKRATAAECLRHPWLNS
Procedure: as §1

CDK2/CycA = CDK2/CycA (Homo sapiens, UniProt P24941); assay: CDK2/CycA kinase assay; assay type: biochemical; details: 10 μM compound; read-out: CDK2/CycA percent of inhibition
Procedure: as §1

IKK-beta = biological target: T1, IKK-beta (Homo sapiens, UniProt O14920); assay: IKK-beta kinase assay; assay type: biochemical; details: 10 μM compound; read-out: IKK-beta percent of inhibition
T1 sequence (O14920 1-756): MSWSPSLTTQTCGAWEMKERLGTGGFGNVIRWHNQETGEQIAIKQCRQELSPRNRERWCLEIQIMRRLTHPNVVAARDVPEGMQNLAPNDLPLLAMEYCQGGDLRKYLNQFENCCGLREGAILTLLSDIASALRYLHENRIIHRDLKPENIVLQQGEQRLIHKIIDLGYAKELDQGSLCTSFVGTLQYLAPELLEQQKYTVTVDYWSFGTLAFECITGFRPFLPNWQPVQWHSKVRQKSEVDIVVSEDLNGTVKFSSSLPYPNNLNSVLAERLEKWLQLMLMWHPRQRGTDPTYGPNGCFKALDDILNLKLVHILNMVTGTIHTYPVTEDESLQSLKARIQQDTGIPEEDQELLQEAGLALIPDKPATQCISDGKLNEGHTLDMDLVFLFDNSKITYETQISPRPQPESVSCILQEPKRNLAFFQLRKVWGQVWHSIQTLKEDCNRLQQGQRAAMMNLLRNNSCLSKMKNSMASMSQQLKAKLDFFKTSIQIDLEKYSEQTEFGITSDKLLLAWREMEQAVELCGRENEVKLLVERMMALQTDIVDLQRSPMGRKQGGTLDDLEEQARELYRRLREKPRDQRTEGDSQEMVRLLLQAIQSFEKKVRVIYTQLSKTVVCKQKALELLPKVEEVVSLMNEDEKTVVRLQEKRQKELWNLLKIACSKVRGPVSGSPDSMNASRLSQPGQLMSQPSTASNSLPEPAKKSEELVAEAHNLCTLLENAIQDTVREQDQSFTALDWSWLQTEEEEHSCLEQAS
Procedure: as §1

Jnk1a1 = Jnk1a1 (Homo sapiens, UniProt P45983); assay: Jnk1a1 kinase assay; assay type: biochemical; details: 10 μM compound; read-out: Jnk1a1 percent of inhibition
Jnk1a1, sequence (P45983 1-384 isoform P45983-2): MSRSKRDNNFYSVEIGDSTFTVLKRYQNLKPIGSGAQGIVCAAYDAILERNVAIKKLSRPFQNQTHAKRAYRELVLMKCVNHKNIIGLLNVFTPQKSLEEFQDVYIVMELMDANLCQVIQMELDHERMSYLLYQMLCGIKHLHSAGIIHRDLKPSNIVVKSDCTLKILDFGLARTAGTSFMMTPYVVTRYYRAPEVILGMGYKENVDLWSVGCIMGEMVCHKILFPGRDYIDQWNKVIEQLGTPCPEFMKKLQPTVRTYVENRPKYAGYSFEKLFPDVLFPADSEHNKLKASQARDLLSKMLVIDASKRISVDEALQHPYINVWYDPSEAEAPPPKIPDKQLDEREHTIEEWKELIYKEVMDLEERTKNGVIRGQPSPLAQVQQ
Procedure: as §1

Abl = Abl (Homo sapiens, UniProt P00519); assay: Abl kinase assay; assay type: biochemical; details: 10 μM compound; read-out: Abl percent of inhibition
Abl, sequence (P00519 whole entry, species assumed): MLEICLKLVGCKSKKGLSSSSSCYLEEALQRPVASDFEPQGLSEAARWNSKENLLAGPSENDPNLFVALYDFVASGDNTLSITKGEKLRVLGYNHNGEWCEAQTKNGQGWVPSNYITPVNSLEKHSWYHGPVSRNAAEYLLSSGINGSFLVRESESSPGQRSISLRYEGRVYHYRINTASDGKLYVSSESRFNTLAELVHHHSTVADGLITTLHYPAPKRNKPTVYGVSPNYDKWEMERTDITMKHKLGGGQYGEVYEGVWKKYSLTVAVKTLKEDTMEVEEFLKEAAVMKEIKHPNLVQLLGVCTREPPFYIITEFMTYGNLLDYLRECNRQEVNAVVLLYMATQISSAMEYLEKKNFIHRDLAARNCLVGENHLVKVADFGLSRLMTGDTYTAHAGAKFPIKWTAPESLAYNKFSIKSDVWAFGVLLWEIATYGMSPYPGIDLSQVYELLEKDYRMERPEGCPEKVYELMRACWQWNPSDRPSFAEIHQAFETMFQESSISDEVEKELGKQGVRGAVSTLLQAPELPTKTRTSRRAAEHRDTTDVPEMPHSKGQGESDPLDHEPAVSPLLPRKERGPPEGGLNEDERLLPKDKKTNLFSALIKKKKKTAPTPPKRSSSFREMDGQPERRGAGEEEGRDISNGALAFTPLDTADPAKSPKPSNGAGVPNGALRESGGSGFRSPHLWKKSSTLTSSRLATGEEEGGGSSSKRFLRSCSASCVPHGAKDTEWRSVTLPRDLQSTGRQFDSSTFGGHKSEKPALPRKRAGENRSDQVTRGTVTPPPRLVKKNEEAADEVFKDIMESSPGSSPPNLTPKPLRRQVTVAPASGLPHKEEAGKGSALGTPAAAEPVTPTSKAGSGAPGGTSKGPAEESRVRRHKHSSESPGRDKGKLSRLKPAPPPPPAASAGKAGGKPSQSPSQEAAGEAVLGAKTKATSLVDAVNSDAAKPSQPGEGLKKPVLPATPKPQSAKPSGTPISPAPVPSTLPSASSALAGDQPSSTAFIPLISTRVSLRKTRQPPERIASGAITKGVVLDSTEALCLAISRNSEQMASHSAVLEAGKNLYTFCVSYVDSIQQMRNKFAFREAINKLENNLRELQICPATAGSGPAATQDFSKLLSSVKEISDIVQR
Procedure: as §1

PDGFR-beta = PDGFR-beta (Homo sapiens, UniProt P09619); assay: PDGFR-beta kinase assay; assay type: biochemical; details: 10 μM compound; read-out: PDGFR-beta percent of inhibition
PDGFR-beta, sequence (P09619 33-1106, species assumed): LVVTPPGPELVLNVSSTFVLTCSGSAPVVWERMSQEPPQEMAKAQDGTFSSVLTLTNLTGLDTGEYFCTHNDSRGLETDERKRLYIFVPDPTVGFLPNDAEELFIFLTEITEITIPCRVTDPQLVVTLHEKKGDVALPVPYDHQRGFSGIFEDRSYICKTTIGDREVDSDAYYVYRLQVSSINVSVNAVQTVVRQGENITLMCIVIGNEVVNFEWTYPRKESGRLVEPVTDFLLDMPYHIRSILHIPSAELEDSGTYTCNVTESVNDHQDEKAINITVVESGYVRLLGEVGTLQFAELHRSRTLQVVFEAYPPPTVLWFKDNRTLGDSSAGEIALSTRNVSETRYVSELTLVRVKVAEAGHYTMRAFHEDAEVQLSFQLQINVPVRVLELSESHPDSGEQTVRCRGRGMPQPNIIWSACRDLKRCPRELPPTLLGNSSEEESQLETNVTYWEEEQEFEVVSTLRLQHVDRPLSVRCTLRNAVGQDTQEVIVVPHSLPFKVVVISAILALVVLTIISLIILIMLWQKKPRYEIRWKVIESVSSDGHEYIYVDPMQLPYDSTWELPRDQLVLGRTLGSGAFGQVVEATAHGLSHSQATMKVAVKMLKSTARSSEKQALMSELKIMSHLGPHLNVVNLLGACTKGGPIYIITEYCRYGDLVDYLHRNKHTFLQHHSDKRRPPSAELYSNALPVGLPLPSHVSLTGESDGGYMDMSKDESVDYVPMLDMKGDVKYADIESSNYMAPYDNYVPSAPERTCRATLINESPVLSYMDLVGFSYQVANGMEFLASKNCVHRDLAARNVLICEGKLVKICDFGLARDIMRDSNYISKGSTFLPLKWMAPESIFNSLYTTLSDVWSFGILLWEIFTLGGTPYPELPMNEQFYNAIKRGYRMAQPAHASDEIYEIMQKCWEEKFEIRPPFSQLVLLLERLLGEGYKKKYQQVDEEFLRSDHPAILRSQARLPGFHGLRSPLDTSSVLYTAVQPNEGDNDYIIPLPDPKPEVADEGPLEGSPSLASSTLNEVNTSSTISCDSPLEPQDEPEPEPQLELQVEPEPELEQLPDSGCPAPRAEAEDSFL
Procedure: as §1

CK1-alpha = CK1-alpha (Homo sapiens, UniProt P48729); assay: CK1-alpha kinase assay; assay type: biochemical; details: 10 μM compound; read-out: CK1-alpha percent of inhibition
Procedure: as §1

GSK-3beta = GSK-3beta (Homo sapiens, UniProt P49841); assay: GSK-3beta kinase assay; assay type: biochemical; details: 10 μM compound; read-out: GSK-3beta percent of inhibition
Procedure: as §1

Kit = Kit (Homo sapiens, UniProt P10721); assay: Kit kinase assay; assay type: biochemical; details: 10 μM compound; read-out: Kit percent of inhibition
Procedure: as §1

cMet = cMet (Homo sapiens, UniProt P08581); assay: cMet kinase assay; assay type: biochemical; details: 10 μM compound; read-out: cMet percent of inhibition
Procedure: as §1

RSK1 = RSK1 (Homo sapiens, UniProt Q15418); assay: RSK1 kinase assay; assay type: biochemical; details: 10 μM compound; read-out: RSK1 percent of inhibition
Procedure: as §1

AKT1/PKBa = AKT1/PKBa (Homo sapiens, UniProt P31749); assay: AKT1/PKBa kinase assay; assay type: biochemical; details: 10 μM compound; read-out: AKT1/PKBa percent of inhibition
Procedure: as §1

c-Raf = c-Raf (Homo sapiens, UniProt P04049); assay: c-Raf kinase assay; assay type: biochemical; details: 10 μM compound; read-out: c-Raf percent of inhibition
Procedure: as §1

ROCK2 = ROCK2 (Homo sapiens, UniProt O75116); assay: ROCK2 kinase assay; assay type: biochemical; details: 10 μM compound; read-out: ROCK2 percent of inhibition
ROCK2, sequence (O75116 whole entry, species assumed): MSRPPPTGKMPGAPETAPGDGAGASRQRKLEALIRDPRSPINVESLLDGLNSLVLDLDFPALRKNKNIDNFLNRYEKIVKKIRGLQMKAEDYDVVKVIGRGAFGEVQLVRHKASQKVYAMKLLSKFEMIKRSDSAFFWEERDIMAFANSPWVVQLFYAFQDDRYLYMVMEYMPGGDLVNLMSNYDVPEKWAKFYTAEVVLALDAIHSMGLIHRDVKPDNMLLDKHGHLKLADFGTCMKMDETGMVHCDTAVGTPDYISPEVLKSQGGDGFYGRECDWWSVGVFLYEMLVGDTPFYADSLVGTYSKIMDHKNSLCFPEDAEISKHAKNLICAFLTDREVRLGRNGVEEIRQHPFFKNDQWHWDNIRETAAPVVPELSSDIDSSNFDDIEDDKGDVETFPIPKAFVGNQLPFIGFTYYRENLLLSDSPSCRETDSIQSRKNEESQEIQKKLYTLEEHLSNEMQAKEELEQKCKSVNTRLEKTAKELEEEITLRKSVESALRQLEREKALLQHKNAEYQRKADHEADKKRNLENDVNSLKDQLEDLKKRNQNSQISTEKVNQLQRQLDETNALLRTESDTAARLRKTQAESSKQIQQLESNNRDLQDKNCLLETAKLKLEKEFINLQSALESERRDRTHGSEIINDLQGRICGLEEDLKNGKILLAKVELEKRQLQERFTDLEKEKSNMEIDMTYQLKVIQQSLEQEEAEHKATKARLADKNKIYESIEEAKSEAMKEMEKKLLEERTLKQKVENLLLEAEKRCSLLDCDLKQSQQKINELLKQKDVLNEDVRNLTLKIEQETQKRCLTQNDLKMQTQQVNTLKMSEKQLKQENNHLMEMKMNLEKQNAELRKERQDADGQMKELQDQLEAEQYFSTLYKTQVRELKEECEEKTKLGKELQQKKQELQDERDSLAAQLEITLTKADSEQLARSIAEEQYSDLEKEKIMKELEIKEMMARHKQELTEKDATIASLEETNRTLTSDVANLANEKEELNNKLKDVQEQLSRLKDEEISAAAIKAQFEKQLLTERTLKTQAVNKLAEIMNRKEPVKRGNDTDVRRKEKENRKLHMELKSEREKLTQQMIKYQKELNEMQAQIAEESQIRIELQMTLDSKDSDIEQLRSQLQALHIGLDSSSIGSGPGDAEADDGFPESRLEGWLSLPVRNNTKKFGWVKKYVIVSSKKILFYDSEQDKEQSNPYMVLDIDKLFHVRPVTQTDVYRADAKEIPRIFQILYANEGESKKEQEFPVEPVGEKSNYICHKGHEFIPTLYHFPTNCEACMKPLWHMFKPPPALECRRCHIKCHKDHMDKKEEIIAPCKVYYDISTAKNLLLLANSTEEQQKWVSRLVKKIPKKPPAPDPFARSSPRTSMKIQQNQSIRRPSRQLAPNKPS
Procedure: as §1

c-Src = c-Src (Homo sapiens, UniProt P12931); assay: c-Src kinase assay; assay type: biochemical; details: 10 μM compound; read-out: c-Src percent of inhibition
Procedure: as §1

P56Lck = P56Lck (Homo sapiens, UniProt P06239); assay: P56Lck kinase assay; assay type: biochemical; details: 10 μM compound; read-out: P56Lck percent of inhibition
Procedure: as §1

Compound | inhibition at 10 µM (InsR) | inhibition at 10 µM (EGFR) | inhibition at 10 µM (MAPK-ERK1) | inhibition at 10 µM (P70S6K) | inhibition at 10 µM (SRPK1) | inhibition at 10 µM (CDK2/CycA) | melting point | inhibition at 10 µM (IKK-beta) | inhibition at 10 µM (Jnk1a1) | inhibition at 10 µM (Abl) | inhibition at 10 µM (PDGFR-beta) | inhibition at 10 µM (CK1-alpha) | inhibition at 10 µM (GSK-3beta) | inhibition at 10 µM (Kit) | inhibition at 10 µM (cMet) | inhibition at 10 µM (RSK1) | inhibition at 10 µM (AKT1/PKBa) | inhibition at 10 µM (c-Raf) | inhibition at 10 µM (ROCK2) | inhibition at 10 µM (c-Src) | also measured
N#Cc1cccc(Nc2nc(C3CC3)nc3sc4c(c23)CCCC4)c1 [Compound 14, 3-(2-Cyclopropyl-5,6,7,8-tetrahydro-benzo[4,5]thieno[2,3-d]pyrimidin-4-ylamino)-benzonitrile] | -3% | 72% | -4% | 2% | 11% | -3% | 176.3 °C | -6% | -4% | -3% | -4% | 0% | 2% | -12% | -7% | -4% | -1% | -5% | 12% | 5% | inhibition at 10 µM (P56Lck): 6%
COc1cccc(Nc2nc(C3CC3)nc3sc4c(c23)CCCC4)c1 [Compound 15, (2-Cyclopropyl-5,6,7,8-tetrahydro-benzo[4,5]thieno[2,3-d]pyrimidin-4-yl)-(3-methoxy-phenyl)-amine] | 23% | 9% | 6% | 4% | 12% | -14% | 186.7 °C | 12% | -3% | 12% | -7% | 5% | -6% | 1% | -6% | 8% | -9% | -13% | 9% | 5% | inhibition at 10 µM (P56Lck): -5%
Fc1cccc(Nc2nc(C3CC3)nc3sc4ccccc4c23)c1 [Compound 16, (2-Cyclopropyl-benzo[4,5]thieno[2,3-d]pyrimidin-4-yl)-(3-fluoro-phenyl)-amine] | 2% | 60% | 6% | 8% | 10% | -2% | 193 °C | -4% | -4% | 3% | -3% | 0% | 1% | -1% | 0% | 2% | -7% | -4% | 9% | 2% | inhibition at 10 µM (P56Lck): 7%
Clc1cccc(Nc2nc(C3CC3)nc3sc4ccccc4c23)c1 [Compound 17, (2-Cyclopropyl-benzo[4,5]thieno[2,3-d]pyrimidin-4-yl)-(3-chloro-phenyl)-amine] | -5% | 86% | 2% | 7% | 9% | -2% | 188 °C | 8% | -8% | 7% | 0% | 0% | 3% | 11% | -5% | -7% | -1% | 12% | 2% | 1% | inhibition at 10 µM (P56Lck): 9%
Brc1cccc(Nc2nc(C3CC3)nc3sc4ccccc4c23)c1 [Compound 18, (2-Cyclopropyl-benzo[4,5]thieno[2,3-d]pyrimidin-4-yl)-(3-bromo-phenyl)-amine] | 5% | 87% | -6% | 2% | 12% | -2% | 180 °C | 3% | -7% | -2% | 0% | 10% | 0% | 5% | -7% | -4% | 0% | -8% | 4% | 22% | inhibition at 10 µM (P56Lck): 11%
Oc1cccc(Nc2nc(C3CC3)nc3sc4ccccc4c23)c1 [Compound 19, 3-(2-Cyclopropyl-benzo[4,5]thieno[2,3-d]pyrimidin-4-ylamino)-phenol] | 11% | 54% | 2% | 3% | 3% | -12% | 222 °C | 12% | -2% | 3% | -1% | 9% | 7% | 3% | -12% | -11% | -5% | -4% | 7% | 11% | inhibition at 10 µM (P56Lck): 3%
COc1cccc(Nc2nc(C3CC3)nc3sc4ccccc4c23)c1 [Compound 20, (2-Cyclopropyl-benzo[4,5]thieno[2,3-d]pyrimidin-4-yl)-(3-methoxy-phenyl)-amine] | -12% | 46% | 21% | 9% | 18% | 4% | 198 °C | 9% | -5% | 7% | -1% | 3% | 0% | 8% | -2% | 7% | -2% | 9% | 0% | 23% | inhibition at 10 µM (P56Lck): 0%
